# From patent US11214594B2, “Antimicrobial peptide having synergistic antibacterial effect with antibiotics on multidrug resistant bacteria, and use thereof” (priority 2016, dated 2022)
# Where a SMILES comes first, the peptide text is derived from it. [ ]: non-standard residue; d: D form.
# Key:
# E. coli [1] = experiment: microbe, parasite or virus in culture; format: cell-based, Escherichia coli; settings: 16 h
# Outline: (§1)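 Broth microdilution in MH medium: strains diluted to 2×10^6 CFU were mixed with equal volumes of twofold serial peptide dilutions in MH medium. MIC was taken as the lowest peptide concentration preventing bacterial growth.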
# MDREC 1229 [2] = experiment: microbe, parasite or virus in culture; format: cell-based, Escherichia coli
# Outline: as §1
# P. aeruginosa = experiment: microbe, parasite or virus in culture; format: cell-based, Pseudomonas aeruginosa
# Outline: as §1
# MDRST 8009 = format: cell-based, Salmonella typhimurium; settings: agent alone
# Outline: as §1
# B. subtilis = experiment: microbe, parasite or virus in culture; format: cell-based, Bacillus subtilis
# Outline: as §1
# S. epidermidis = experiment: microbe, parasite or virus in culture; format: cell-based, Staphylococcus epidermidis
# Outline: as §1
# E. coli [3] = experiment: MIC of antibiotic during combined treatment with antimicrobial peptide; format: cell-based, Escherichia coli; settings: for Antibiotic MIC, Erythromycin / Antibiotic MIC, Linezolid / Antibiotic MIC, Vancomycin: E. coli
# Outline: (§2)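 MIC values for mixed peptide plus antibiotic solutions were measured in MH medium.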
# MDREC 1229 [4] = experiment: as above; format: cell-based, Escherichia coli
# Outline: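 Antibiotic MIC came from antibiotic dilutions added to bacteria (2×10^6 CFU/ml, MH medium) already combined with peptide serially diluted 2:1 from its own MIC. Swapping the roles of the two agents gave the peptide MIC.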
# A. baumannii = experiment: as above; format: cell-based, Acinetobacter baumannii
# Outline: as §2
# [5] = peptide treatment concentration 1 μg/ml
# [6] = peptide treatment concentration 2 μg/ml
# [7] = peptide treatment concentration 4 μg/ml
# [8] = peptide treatment concentration 6 μg/ml
# [9] = peptide treatment concentration 8 μg/ml
# [10] = peptide treatment concentration 16 μg/ml
# [11] = peptide treatment concentration 32 μg/ml
# [12] = peptide treatment concentration 64 μg/ml
# [13] = A. baumannii, combined with peptide at 1 μg/ml
structure (smiles),measurement,setting,value
"CC[C@H](C)[C@H](NC(=O)[C@H](CCCCN)NC(=O)[C@H](Cc1c[nH]c2ccccc12)NC(=O)[C@@H](N)CCCNC(=N)N)C(=O)N[C@@H](Cc1ccccc1)C(=O)N[C@@H](CCCCN)C(=O)N[C@@H](CCCCN)C(=O)N[C@H](C(=O)N[C@H](CCCCN)C(=O)N[C@@H](CCCCN)C(=O)N[C@@H](CC(C)C)C(=O)N[C@@H](CC(C)C)C(=O)N[C@@H](Cc1c[nH]cn1)C(=O)N[C@@H](CO)C(=O)N[C@@H](C)C(=O)N[C@@H](CCCCN)C(=O)N[C@@H](CCCCN)C(=O)N[C@@H](Cc1c[nH]c2ccccc12)C(N)=O)[C@@H](C)CC [PapMA-16, RWK IFK KIk KLL HSA KKW-NH2] (H-RWKIFKKI[dK]KLLHSAKKW-NH2; N-terminus assumed)",Minimal inhibitory concentration MIC,E. coli [1],64 µg/mL
same,Minimal inhibitory concentration MIC,MDREC 1229 [2],64 µg/mL
same,"Peptide MIC, peptide alone",MDREC 1229 [2],64 µg/mL
same,Minimal inhibitory concentration MIC,P. aeruginosa,64 µg/mL
same,Minimal inhibitory concentration MIC,MDRST 8009,64 µg/mL
same,Minimal inhibitory concentration MIC,B. subtilis,>128 µg/mL
same,Minimal inhibitory concentration MIC,S. epidermidis,>128 µg/mL
same,Synergistic effect of antibacterial activity with existing antibiotics compared with PapMA-1,E. coli [3]; E. coli and MDREC1229,higher level than the PapMA-1 peptide
same,"Antibiotic MIC, Erythromycin",E. coli [3]; erythromycin combined with peptide at 1 μg/ml,128 µg/mL
same,"Antibiotic MIC, Erythromycin",E. coli [3]; erythromycin combined with peptide at 2 μg/ml,32 µg/mL
same,"Antibiotic MIC, Erythromycin",E. coli [3]; erythromycin combined with peptide at 4 μg/ml,16 µg/mL
same,"Antibiotic MIC, Erythromycin",E. coli [3]; erythromycin combined with peptide at 6 μg/ml,2 µg/mL
same,"Antibiotic MIC, Erythromycin",E. coli [3]; erythromycin combined with peptide at 8 μg/ml,2 µg/mL
same,"Antibiotic MIC, Erythromycin",E. coli [3]; erythromycin combined with peptide at 16 μg/ml,0.25 µg/mL
same,"Antibiotic MIC, Erythromycin",E. coli [3]; erythromycin combined with peptide at 32 μg/ml,0.125 µg/mL
same,"Antibiotic MIC, Erythromycin",E. coli [3]; erythromycin combined with peptide at 64 μg/ml,0 µg/mL
same,"Antibiotic MIC, Linezolid",E. coli [3]; linezolid combined with peptide at 1 μg/ml,>128 µg/mL
same,"Antibiotic MIC, Linezolid",E. coli [3]; linezolid combined with peptide at 2 μg/ml,>128 µg/mL
same,"Antibiotic MIC, Linezolid",E. coli [3]; linezolid combined with peptide at 4 μg/ml,32 µg/mL
same,"Antibiotic MIC, Linezolid",E. coli [3]; linezolid combined with peptide at 6 μg/ml,16 µg/mL
same,"Antibiotic MIC, Linezolid",E. coli [3]; linezolid combined with peptide at 8 μg/ml,16 µg/mL
same,"Antibiotic MIC, Linezolid",E. coli [3]; linezolid combined with peptide at 16 μg/ml,8 µg/mL
same,"Antibiotic MIC, Linezolid",E. coli [3]; linezolid combined with peptide at 32 μg/ml,4 µg/mL
same,"Antibiotic MIC, Linezolid",E. coli [3]; linezolid combined with peptide at 64 μg/ml,0 µg/mL
same,"Antibiotic MIC, Vancomycin",E. coli [3]; vancomycin combined with peptide at 1 μg/ml,>128 µg/mL
same,"Antibiotic MIC, Vancomycin",E. coli [3]; vancomycin combined with peptide at 2 μg/ml,>128 µg/mL
same,"Antibiotic MIC, Vancomycin",E. coli [3]; vancomycin combined with peptide at 4 μg/ml,>128 µg/mL
same,"Antibiotic MIC, Vancomycin",E. coli [3]; vancomycin combined with peptide at 6 μg/ml,32 µg/mL
same,"Antibiotic MIC, Vancomycin",E. coli [3]; vancomycin combined with peptide at 8 μg/ml,16 µg/mL
same,"Antibiotic MIC, Vancomycin",E. coli [3]; vancomycin combined with peptide at 16 μg/ml,8 µg/mL
same,"Antibiotic MIC, Vancomycin",E. coli [3]; vancomycin combined with peptide at 32 μg/ml,4 µg/mL
same,"Antibiotic MIC, Vancomycin",E. coli [3]; vancomycin combined with peptide at 64 μg/ml,0 µg/mL
same,"Antibiotic MIC, Erythromycin",MDREC 1229 [4]; [5],>128 µg/mL
same,"Antibiotic MIC, Linezolid",MDREC 1229 [4]; [5],>128 µg/mL
same,"Antibiotic MIC, Vancomycin",MDREC 1229 [4]; [5],>128 µg/mL
same,"Antibiotic MIC, Erythromycin",MDREC 1229 [4]; [6],64 µg/mL
same,"Antibiotic MIC, Linezolid",MDREC 1229 [4]; [6],>128 µg/mL
same,"Antibiotic MIC, Vancomycin",MDREC 1229 [4]; [6],>128 µg/mL
same,"Antibiotic MIC, Erythromycin",MDREC 1229 [4]; [7],32 µg/mL
same,"Antibiotic MIC, Linezolid",MDREC 1229 [4]; [7],64 µg/mL
same,"Antibiotic MIC, Vancomycin",MDREC 1229 [4]; [7],128 µg/mL
same,"Antibiotic MIC, Erythromycin",MDREC 1229 [4]; [8],4 µg/mL
same,"Antibiotic MIC, Linezolid",MDREC 1229 [4]; [8],32 µg/mL
same,"Antibiotic MIC, Vancomycin",MDREC 1229 [4]; [8],32 µg/mL
same,"Antibiotic MIC, Erythromycin",MDREC 1229 [4]; [9],2 µg/mL
same,"Antibiotic MIC, Linezolid",MDREC 1229 [4]; [9],16 µg/mL
same,"Antibiotic MIC, Vancomycin",MDREC 1229 [4]; [9],16 µg/mL
same,"Antibiotic MIC, Erythromycin",MDREC 1229 [4]; [10],1 µg/mL
same,"Antibiotic MIC, Linezolid",MDREC 1229 [4]; [10],8 µg/mL
same,"Antibiotic MIC, Vancomycin",MDREC 1229 [4]; [10],8 µg/mL
same,"Antibiotic MIC, Erythromycin",MDREC 1229 [4]; [11],0.5 µg/mL
same,"Antibiotic MIC, Linezolid",MDREC 1229 [4]; [11],4 µg/mL
same,"Antibiotic MIC, Vancomycin",MDREC 1229 [4]; [11],4 µg/mL
same,"Antibiotic MIC, Erythromycin",MDREC 1229 [4]; [12],0 µg/mL
same,"Antibiotic MIC, Linezolid",MDREC 1229 [4]; [12],0 µg/mL
same,"Antibiotic MIC, Vancomycin",MDREC 1229 [4]; [12],0 µg/mL
same,Synergistic effect of antibacterial activity with existing antibiotics compared with PapMA-1,A. baumannii; A. baumannii and MDRAB 12035,level similar to that of PapMA-1 peptide
same,"Antibiotic MIC, Erythromycin",A. baumannii; [13],32 µg/mL
same,"Antibiotic MIC, Linezolid",A. baumannii; [13],>128 µg/mL
same,"Antibiotic MIC, Vancomycin",A. baumannii; [13],>128 µg/mL
